Assay results published in ChEMBL document CHEMBL4007416, “Thieno[3,2-b]pyrrole-5-carboxamides as New Reversible Inhibitors of Histone Lysine Demethylase KDM1A/LSD1. Part 2: Structure-Based Drug Design and Structure-Activity Relationship” (J Med Chem, 2017).
Activity calls are given as the source filed them. No cut-off for these calls is given here.

Experiments:
LSD1/CoREST complex [1] = target: T1, LSD1/CoREST complex (Homo sapiens, UniProt O60341); assay: Inhibition of recombinant human KDM1A/CoREST complex expressed in Escherichia coli using [Lys(Me1)4]-Histone H3 (1 to 21 residues)-GGK(biotin) as substrate incubated for 20 mins measured after 1 hr by TR-FRET assay
THP-1 [2] = assay: Anticlonogenic activity against human THP1 cells assessed as inhibition of methylcellulose colony formation at 1 uM after 13 days relative to control; format: functional; details: THP-1, 312 h
MV4-11 = assay: Antiproliferative activity against human MV4-11 cells
[3] = target: T2, Amine oxidase [flavin-containing] B (Homo sapiens, UniProt P27338); assay: Inhibition of recombinant human MAOB incubated for 15 mins measured after 30 mins by luminescence-Glo assay
T2 sequence (P27338 whole entry): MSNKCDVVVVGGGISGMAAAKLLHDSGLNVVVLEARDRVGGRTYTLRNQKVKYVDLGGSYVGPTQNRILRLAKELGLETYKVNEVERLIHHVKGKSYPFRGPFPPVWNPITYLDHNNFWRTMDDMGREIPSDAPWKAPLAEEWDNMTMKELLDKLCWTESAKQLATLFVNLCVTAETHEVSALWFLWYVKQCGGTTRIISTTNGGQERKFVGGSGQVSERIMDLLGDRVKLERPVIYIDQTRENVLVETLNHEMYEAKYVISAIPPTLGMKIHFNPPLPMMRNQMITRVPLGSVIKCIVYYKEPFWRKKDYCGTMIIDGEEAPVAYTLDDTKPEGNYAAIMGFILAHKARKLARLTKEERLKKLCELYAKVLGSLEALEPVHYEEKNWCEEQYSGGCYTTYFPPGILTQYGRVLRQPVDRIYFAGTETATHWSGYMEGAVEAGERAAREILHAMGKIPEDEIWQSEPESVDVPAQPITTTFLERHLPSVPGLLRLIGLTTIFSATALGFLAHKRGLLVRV

[4] = target: Lysine-specific histone demethylase 1A (Homo sapiens) (UniProt O60341); assay: Inhibition of KDM1A in human THP1 cells assessed as increase in CD86 expression level at 0.5 uM after 48 hrs by flow cytometric analysis; format: cell-based
THP-1 [5] = assay: Antiproliferative activity against human THP1 cells
[6] = target: Lysine-specific histone demethylase 1A (Homo sapiens) (UniProt O60341); assay: Inhibition of KDM1A in human THP1 cells assessed as increase in CD11b expression level at 0.5 uM after 48 hrs by flow cytometric analysis; format: cell-based
THP-1 [7] = assay: Cell cycle arrest in human THP1 cells at 1 uM after 72 hrs by propidium iodide staining based flow cytometry; format: functional
[8] = target: T3, Amine oxidase [flavin-containing] A (Homo sapiens, UniProt P21397); assay: Inhibition of recombinant human MAOA incubated for 15 mins measured after 30 mins by luminescence-Glo assay
T3 sequence (P21397 whole entry): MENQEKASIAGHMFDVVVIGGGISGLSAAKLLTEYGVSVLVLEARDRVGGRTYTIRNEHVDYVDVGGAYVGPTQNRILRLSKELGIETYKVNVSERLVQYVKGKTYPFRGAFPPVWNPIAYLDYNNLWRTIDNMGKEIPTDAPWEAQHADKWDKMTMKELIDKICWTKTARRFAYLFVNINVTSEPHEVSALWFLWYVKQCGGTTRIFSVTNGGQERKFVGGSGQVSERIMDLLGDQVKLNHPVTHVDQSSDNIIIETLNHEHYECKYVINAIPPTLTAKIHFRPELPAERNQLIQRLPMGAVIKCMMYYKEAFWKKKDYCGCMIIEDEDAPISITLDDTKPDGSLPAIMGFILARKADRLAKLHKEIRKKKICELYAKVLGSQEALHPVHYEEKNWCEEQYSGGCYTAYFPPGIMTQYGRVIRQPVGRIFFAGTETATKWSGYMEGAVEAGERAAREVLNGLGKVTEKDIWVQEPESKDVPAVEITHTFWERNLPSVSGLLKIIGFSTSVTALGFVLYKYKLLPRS

NB-4 = assay: Antiproliferative activity against human NB4 cells
THP-1 [9] = assay: Induction of apoptosis in human THP1 cells at 1 uM after 72 hrs by Annexin V-propidium iodide double staining based flow cytometry; format: functional, cell-based
LSD1/CoREST complex [10] = target: T1, LSD1/CoREST complex; assay: Competitive inhibition of recombinant human KDM1A/CoREST complex expressed in Escherichia coli using H3K4me peptide as substrate preincubated for 15 mins followed by substrate addition measured for 12 mins by Lineweaver-Burk plot analysis
[11] = system: CN1CCC(Oc2ccc(OCc3ccccc3NC(=O)c3cc4sccc4n3C)cc2)CC1; assay: Inhibition of recombinant human KDM1A/CoREST complex expressed in Escherichia coli assessed as Km for substrate using H3K4me peptide as substrate preincubated for 15 mins followed by substrate addition measured for 12 mins by Lineweaver-Burk plot analysis
[12] = system: CN1CCC(Oc2ccc(OCc3ccccc3NC(=O)c3cc4sccc4n3C)cc2)CC1; assay: Inhibition of recombinant human KDM1A/CoREST complex expressed in Escherichia coli assessed as Vmax for substrate using H3K4me peptide as substrate preincubated for 15 mins followed by substrate addition measured for 12 mins by Lineweaver-Burk plot analysis

Compound | IC50 (LSD1/CoREST complex [1]) | other results
Cn1c(C(=O)Nc2ccccc2COc2ccc([C@H]3CC[C@H](N)CC3)cc2)cc2sccc21 | 340 nM | 
Cn1c(C(=O)Nc2ccccc2COc2ccc(OC3CCNC3)cc2)cc2sccc21 (stereo not given) | 804 nM | 
COCc1cccc(NC(=O)c2cc3sccc3n2C)c1COc1ccc(OC[C@H]2CCNC2)cc1 | 85.7 nM | 
Cn1c(C(=O)Nc2cccc(OCc3ccncc3)c2)cc2sccc21 | 5800 nM | 
Cn1c(C(=O)Nc2ccccc2COc2ccc(OCC3CCNCC3)cc2)cc2sccc21 | 149 nM | 
CN1CCC(Oc2ccc(COc3ccccc3NC(=O)c3cc4sccc4n3C)cc2)CC1 | 336 nM | 
Cn1c(C(=O)Nc2ccccc2COc2ccc(O[C@H]3CC[C@@H](N)CC3)cc2)cc2sccc21 | 121 nM | 
Cn1c(C(=O)Nc2ccccc2OCc2ccncc2)cc2sccc21 | > 100000 nM | 
Cn1c(C(=O)Nc2ccccc2CCc2ccc(OC3CCNCC3)cc2)cc2sccc21 | 177 nM | 
CN1CCC(Oc2ccc(OCc3ccc(NC(=O)c4cc5sccc5n4C)cc3)cc2)CC1 | 2500 nM | 
Cn1c(C(=O)Nc2ccccc2OCC2CCN(CC3CCNCC3)CC2)cc2sccc21 | 1700 nM | 
COc1ccc(NC(=O)c2cc3sccc3n2C)cc1 | > 100000 nM | 
CCn1c(C(=O)Nc2cccc(COC)c2COc2ccc(OC[C@@H]3CCNC3)cc2)cc2sccc21 | 6.7 nM | inhibition at 1 µM (THP-1 [2]): 63.5%; IC50 (MV4-11): 4100 nM; IC50 [3]: > 100000 nM; inhibition [4]: Active; IC50 (THP-1 [5]): 1200 nM; inhibition [6]: Active; Activity (THP-1 [7]): inactive; IC50 [8]: 47200 nM; IC50 (NB-4): 2900 nM; Activity (THP-1 [9]): inactive
CCN1CCC(Oc2ccc(OCc3ccccc3NC(=O)c3cc4sccc4n3C)cc2)CC1 | 451 nM | 
Cn1c(C(=O)Nc2ccccc2COc2ccc(OCC3CNC3)cc2)cc2sccc21 | 618 nM | 
CC(=O)N1CCC(Oc2ccc(OCc3ccccc3NC(=O)c3cc4sccc4n3C)cc2)CC1 | > 100000 nM | 
CN1CCC(Oc2cccc(OCc3ccccc3NC(=O)c3cc4sccc4n3C)c2)CC1 | 1000 nM | 
CCOCc1cccc(NC(=O)c2cc3sccc3n2C)c1COc1ccc(OC[C@@H]2CCNC2)cc1 | 7.8 nM | inhibition at 1 µM (THP-1 [2]): 70.5%; IC50 (MV4-11): 2500 nM; IC50 [3]: > 100000 nM; inhibition [4]: Active; IC50 (THP-1 [5]): 2400 nM; inhibition [6]: Active; Activity (THP-1 [7]): inactive; IC50 [8]: 41300 nM; IC50 (NB-4): 1200 nM; Activity (THP-1 [9]): inactive
Cn1c(C(=O)Nc2ccccc2C(=O)Nc2ccc(OC3CCNCC3)cc2)cc2sccc21 | 2200 nM | 
COCc1ccccc1NC(=O)c1cc2sccc2n1C | > 100000 nM | 
Cn1c(C(=O)Nc2ccccc2COc2ccc(NC3CCNCC3)cc2)cc2sccc21 | 2500 nM | 
CN1CCC(Oc2ccc(OCc3ccccc3NC(=O)c3cc4sccc4n3C)cc2)CC1 | 310 to 331 nM | Ki (LSD1/CoREST complex [10]): 2300 nM
COCc1cccc(NC(=O)c2cc3sccc3n2C)c1COc1ccc(OC[C@@H]2CCNC2)cc1 | 8.4 nM | IC50 (MV4-11): 1200 nM; IC50 [3]: > 100000 nM; inhibition [4]: Active; IC50 (THP-1 [5]): 1300 nM; inhibition [6]: Active; IC50 [8]: 24900 nM; IC50 (NB-4): 400 nM

Compound | IC50 (LSD1/CoREST complex [1]) | other results
COCc1cccc(NC(=O)c2cc3sccc3n2C)c1COc1ccc(OC2CCNCC2)cc1 | 74.6 to 75 nM | 
Cn1c(C(=O)Nc2cccc(CN3CCOCC3)c2COc2ccc(OC3CCNCC3)cc2)cc2sccc21 | 65 nM | 
COc1ccccc1NC(=O)c1cc2sccc2n1C | > 100000 nM | 
COCc1ccc(NC(=O)c2cc3sccc3n2C)cc1 | > 100000 nM | 
Cn1c(C(=O)Nc2ccccc2COc2ccc(OC3CCNCC3)cc2)cc2sccc21 | 90 to 94 nM | 
Cn1c(C(=O)Nc2ccccc2COc2ccncc2)cc2sccc21 | > 100000 nM | 
Cn1c(C(=O)Nc2ccccc2COc2ccc(OC3CCCNC3)cc2)cc2sccc21 (stereo not given) | 674 nM | 
Cn1c(C(=O)Nc2ccccc2COc2ccc(N3CCNCC3)cc2)cc2sccc21 | 1500 nM | 
Cn1c(C(=O)Nc2ccc(COc3ccncc3)cc2)cc2sccc21 | 46400 nM | 
CC(C)OCc1cccc(NC(=O)c2cc3sccc3n2C)c1COc1ccc(OC2CCNCC2)cc1 | 66 nM | 
Cn1c(C(=O)Nc2ccc(OCc3ccncc3)cc2)cc2sccc21 | > 100000 nM | 
Cn1c(C(=O)Nc2ccccc2COc2ccc(OC3CCN(Cc4ccccc4)CC3)cc2)cc2sccc21 | > 100000 nM | 
Cn1c(C(=O)Nc2ccccc2COc2ccc(OCC3CCNC3)cc2)cc2sccc21 (stereo not given) | 22 nM | 
CN1CCC(Oc2ccccc2OCc2ccccc2NC(=O)c2cc3sccc3n2C)CC1 | 68200 nM | 
Cn1c(C(=O)Nc2ccccc2COc2ccc(OC3CCCNCC3)cc2)cc2sccc21 (stereo not given) | 64 nM | 
CCOCc1cccc(NC(=O)c2cc3sccc3n2C)c1COc1ccc(OC2CCNCC2)cc1 | 56 nM | 
CN1CCN(Cc2ccc(OCc3ccccc3NC(=O)c3cc4sccc4n3C)cc2)CC1 | 2900 nM | 
Cn1c(C(=O)Nc2ccccc2COc2ccc(OC[C@@H]3CCNC3)cc2)cc2sccc21 | 18 nM | 
Cn1c(C(=O)Nc2ccccc2COc2ccc(CNC(=N)N)cc2)cc2sccc21 | 3200 nM | 
Cn1c(C(=O)Nc2ccccc2COc2ccc(OC3C[C@H]4CC[C@@H](C3)N4)cc2)cc2sccc21 (stereo not given in full) | 124 nM | 
LSD1/CoREST complex (Homo sapiens) (from UniProt O60341+Q9UKL0) |  | Km [11]: 1.5 µM; Vmax [12]: 226 µmol/min
CNCCCOc1ccc(OCc2ccccc2NC(=O)c2cc3sccc3n2C)cc1 | 1300 nM | 
COCc1cccc(NC(=O)c2cc3sccc3n2C)c1COc1ccc(OC2CCCNCC2)cc1 (stereo not given) | 29.2 nM | 
